Measured values from PubChem BioAssay AID1845203 (Molecular Pharmacology Branch, DTP, NCI, 2023).
Several values for one entry are separate records, joined by “and”; a condition that tells them apart may be missing. Equal values may be shown once.

Test system: G-401 tumor spheroids, viability % test/control
Assay: Anticancer human tumor G-401 cell line growth inhibition;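 note: spheroids exposed to compound for 7 days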;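 for viability, T/C: 100% = DMSO vehicle-treated spheroids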
Conditions: spheroids with HUVEC and MSC; for viability, T/C: stronger effect = lower value
Method in brief: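 Single agents and combinations were tested on spheroids built from tumor cells plus HUVEC and hMSC, at half-log dilutions starting at or near clinical Cmax, else 10 microM; final DMSO 0.25% (v/v).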

CC(C)n1c(=O)n(C)c2cnc3cc(F)c(-c4ccc(OCCCN5CCCCC5)nc4)cc3c21 + Cn1nnc2c(C(N)=O)ncn2c1=O
IC50 (curve of first compound, second compound 1 µM): > 10000 nM
IC50 (curve of first compound, second compound 3.16 µM): > 10000 nM
IC50 (curve of first compound, second compound 10 µM): > 10000 nM
IC50 (curve of first compound, second compound 31.6 µM): > 10000 nM
IC50 (curve of first compound, second compound 100 µM): > 10000 nM
viability, T/C (second compound 1 µM, first compound 0.0316 µM): 99.9%
viability, T/C (second compound 1 µM, first compound 0.1 µM): 104%
viability, T/C (second compound 1 µM, first compound 0.316 µM): 102%
viability, T/C (second compound 1 µM, first compound 1 µM): 104%
viability, T/C (second compound 1 µM, first compound 3.16 µM): 103%
viability, T/C (second compound 1 µM, first compound 10 µM): 76.5%
viability, T/C (second compound 3.16 µM, first compound 0.0316 µM): 81.6%
viability, T/C (second compound 3.16 µM, first compound 0.1 µM): 102%
viability, T/C (second compound 3.16 µM, first compound 0.316 µM): 102%
viability, T/C (second compound 3.16 µM, first compound 1 µM): 102%
viability, T/C (second compound 3.16 µM, first compound 3.16 µM): 99.4%
viability, T/C (second compound 3.16 µM, first compound 10 µM): 83.6%
viability, T/C (second compound 10 µM, first compound 0.0316 µM): 105%
viability, T/C (second compound 10 µM, first compound 0.1 µM): 98.9%
viability, T/C (second compound 10 µM, first compound 0.316 µM): 97.5%
viability, T/C (second compound 10 µM, first compound 1 µM): 103%
viability, T/C (second compound 10 µM, first compound 3.16 µM): 101%
viability, T/C (second compound 10 µM, first compound 10 µM): 66.2%
viability, T/C (second compound 31.6 µM, first compound 0.0316 µM): 97.8%
viability, T/C (second compound 31.6 µM, first compound 0.1 µM): 95.4%
viability, T/C (second compound 31.6 µM, first compound 0.316 µM): 97.7%
viability, T/C (second compound 31.6 µM, first compound 1 µM): 96.3%
viability, T/C (second compound 31.6 µM, first compound 3.16 µM): 90.4%
viability, T/C (second compound 31.6 µM, first compound 10 µM): 62.8%
viability, T/C (second compound 100 µM, first compound 0.0316 µM): 89.6%
viability, T/C (second compound 100 µM, first compound 0.1 µM): 92.5%
viability, T/C (second compound 100 µM, first compound 0.316 µM): 86.6%
viability, T/C (second compound 100 µM, first compound 1 µM): 88%
viability, T/C (second compound 100 µM, first compound 3.16 µM): 91.6%
viability, T/C (second compound 100 µM, first compound 10 µM): 80.1%

COc1cc(C)[nH]c(=O)c1CN1CCc2c(Cl)cc(C(OC)C3COC3)c(Cl)c2C1=O (stereo unspecified)
viability, T/C (compound 0.0316 µM): 76.2% and 80.4% and 95.5%
viability, T/C (compound 0.1 µM): 52.4% and 56.5% and 66.3%
viability, T/C (compound 0.316 µM): 35.7% and 33.3% and 42.5%
viability, T/C (compound 1 µM): 30.3% and 28.9% and 35.6%
viability, T/C (compound 3.16 µM): 28% and 18.8% and 33.9%
viability, T/C (compound 10 µM): 26.9% and 19% and 31.9%
IC50 (curve of compound): 118 nM and 138 nM and 223 nM

Cc1sc2c(c1C)C(c1ccc(Cl)cc1)=NC(CC(=O)Nc1ccc(O)cc1)c1nnc(C)n1-2 (stereo unspecified)
viability, T/C (compound 0.00949 µM): 93.3% and 106% and 91.1%
viability, T/C (compound 0.03 µM): 86.6% and 75.1% and 80.9%
viability, T/C (compound 0.0949 µM): 65.4% and 56.4% and 67.6%
viability, T/C (compound 0.3 µM): 34.7% and 35.5% and 37.8%
viability, T/C (compound 0.949 µM): 20.1% and 20% and 21.8%
viability, T/C (compound 3 µM): 10% and 11.8% and 7.68%
IC50 (curve of compound): 173 nM and 122 nM and 192 nM

O=C(c1cc(Cc2n[nH]c(=O)c3ccccc23)ccc1F)N1CCN(C(=O)C2CC2)CC1 + COc1cc2c(cc1O)CCNC21CSC2c3c(OC(C)=O)c(C)c4c(c3C(COC1=O)N1C(O)C3Cc5cc(C)c(OC)c(O)c5C(C21)N3C)OCO4
IC50 (curve of first compound, second compound 30 pM): 9070 nM
IC50 (curve of first compound, second compound 94.9 pM): 6010 nM
IC50 (curve of first compound, second compound 0.0003 µM): < 94.9 nM
IC50 (curve of first compound, second compound 0.000949 µM): < 94.9 nM
IC50 (curve of first compound, second compound 0.003 µM): < 94.9 nM
viability, T/C (second compound 30 pM, first compound 0.0949 µM): 80.3%
viability, T/C (second compound 30 pM, first compound 0.3 µM): 97%
viability, T/C (second compound 30 pM, first compound 0.949 µM): 88.3%
viability, T/C (second compound 30 pM, first compound 3 µM): 77.8%
viability, T/C (second compound 30 pM, first compound 9.49 µM): 49.1%
viability, T/C (second compound 30 pM, first compound 30 µM): 30.1%
viability, T/C (second compound 94.9 pM, first compound 0.0949 µM): 89.4%
viability, T/C (second compound 94.9 pM, first compound 0.3 µM): 78.8%
viability, T/C (second compound 94.9 pM, first compound 0.949 µM): 82.2%
viability, T/C (second compound 94.9 pM, first compound 3 µM): 71.5%
viability, T/C (second compound 94.9 pM, first compound 9.49 µM): 35.9%
viability, T/C (second compound 94.9 pM, first compound 30 µM): 25.7%
viability, T/C (second compound 0.0003 µM, first compound 0.0949 µM): 32.3%
viability, T/C (second compound 0.0003 µM, first compound 0.3 µM): 37.4%
viability, T/C (second compound 0.0003 µM, first compound 0.949 µM): 39.3%
viability, T/C (second compound 0.0003 µM, first compound 3 µM): 29.5%
viability, T/C (second compound 0.0003 µM, first compound 9.49 µM): 18.7%
viability, T/C (second compound 0.0003 µM, first compound 30 µM): 16.2%
viability, T/C (second compound 0.000949 µM, first compound 0.0949 µM): 10.1%
viability, T/C (second compound 0.000949 µM, first compound 0.3 µM): 5.68%
viability, T/C (second compound 0.000949 µM, first compound 0.949 µM): 7.52%
viability, T/C (second compound 0.000949 µM, first compound 3 µM): 6.02%
viability, T/C (second compound 0.000949 µM, first compound 9.49 µM): 5.03%
viability, T/C (second compound 0.000949 µM, first compound 30 µM): 1.6%
viability, T/C (second compound 0.003 µM, first compound 0.0949 µM): 0.13%
viability, T/C (second compound 0.003 µM, first compound 0.3 µM): 0.15%
viability, T/C (second compound 0.003 µM, first compound 0.949 µM): 0.12%
viability, T/C (second compound 0.003 µM, first compound 3 µM): 0.18%
viability, T/C (second compound 0.003 µM, first compound 9.49 µM): 0.2%
viability, T/C (second compound 0.003 µM, first compound 30 µM): 0.24%

[2H]c1nc(C)nc([2H])c1-c1cc(NC[C@@H](C)c2cccc3c(C(=O)NC)ccnc23)ncn1
viability, T/C (compound 0.0316 µM): 104% and 105% and 96.6%
viability, T/C (compound 0.1 µM): 108% and 98.9% and 97.7%
viability, T/C (compound 0.316 µM): 103% and 105% and 98.1%
viability, T/C (compound 1 µM): 102% and 98.9% and 98.6%
viability, T/C (compound 3.16 µM): 105% and 103% and 98.3%
viability, T/C (compound 10 µM): 104% and 103% and 98%
IC50 (curve of compound): > 10000 nM
